# According to patent US4342827A, “Production of enzymes” (Public Health Laboratory Service, Center for Applied …, priority 1978, dated 1982):
# Target: T1, glycerol dehydrogenase (GDH) (Geobacillus stearothermophilus, UniProt P32816)
# T1 construct: crude, partially or highly purified (DEAE-cellulose, triazine dye-agarose, gel filtration)
# Assay: GDH assay against analogous substrates, activities (Vmax) relative to glycerol
# Format: biochemical, Bacillus stearothermophilus
# Conditions: 30° C., pH 8.5; substrate instead of glycerol
# Procedure: The thermostable GDH enzymes produced from the strains of Bacillus stearothermophilus described above typically have a structure composed of four identical or similar sub-units each of molecular weight about 60,000 giving an overall molecular weight of about 240,000±30,000 daltons. When homogeneous and tested by the assay method described below they have a specific activity of at least 5 and normally about 10 to 30 units per mg protein at 30° C. and pH 8.5. When tested under similar conditions against analogous substrates the activities (Vmax) relative to glycerol (100%) were:
# Assays for GDH activity were carried out by the following procedure and all references to activities in the present description and claims refer to activity as measured by this assay.
# (i) 0.25 M Triethanolamine-HCl (pH 8.5).
# (iii) 10 mg/ml NAD (nicotinamide adenine dinucleotide)
# 600 μl, H2 O, 200 μl triethanolamine-HCl solution, 25 μl NAD solution and 5 to 200 μl of the sample to be assayed were mixed in a cuvette (pathlength 1 cm.). After pre-equilibration to attain 30° C., 100 μl of glycerol solution was added to initiate the reaction.
# The reduction of NAD was followed by spectrophotometric means, by observing the absorbance of the solution at 340 nm. Either a water or reagent blank was used, and units were expressed as μmoles of NADH formed per minute at 30° C. with dilution to give ΔOD340 in the range 0.06 to 0.12 per minute.
# T1 sequence (P32816 whole entry): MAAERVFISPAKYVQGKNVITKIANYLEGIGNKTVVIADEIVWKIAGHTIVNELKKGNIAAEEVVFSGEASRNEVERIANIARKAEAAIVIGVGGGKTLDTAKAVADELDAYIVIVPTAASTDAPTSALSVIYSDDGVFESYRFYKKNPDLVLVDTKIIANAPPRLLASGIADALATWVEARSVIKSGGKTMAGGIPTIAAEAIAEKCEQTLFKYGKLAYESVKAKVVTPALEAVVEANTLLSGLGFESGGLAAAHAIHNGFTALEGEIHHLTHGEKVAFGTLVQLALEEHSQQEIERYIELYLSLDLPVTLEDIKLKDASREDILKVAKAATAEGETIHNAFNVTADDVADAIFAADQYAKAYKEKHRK
row,Structure (SMILES),activity (Vmax) relative to glycerol (100%) [%]
1,"CC(O)CO (stereo not drawn) [propane1, 2 diol]",165
2,"OCCCO [propane1, 3diol]",16
3,"OCCC(O)S (stereo not drawn) [3-mercapto-propane1, 3 diol]",49

# Further lines, results first:
row,activity (Vmax) relative to glycerol (100%) [%],Structure (SMILES)
1,< 10,O=C(CO)CO [dihydroxyacetone]
2,< 10,O=C(O)C(O)CO (stereo not drawn) [glyceric acid]

# Same assay, conditions: high concentrations
row,effect on GDH activity,Structure (SMILES)
1,inhibited,N [NH4^+ ions]
